According to PubChem BioAssay AID2060510 (Molecular Pharmacology Branch, DTP, NCI, 2025):

System: 439559-082-T-J2-PDC spheroids viability
Assay: Anticancer human tumor 439559-082-T-J2-PDC patient-derived colon adenocarcinoma cell line growth inhibition [GQUAD]
Details: for IC50: curve of first compound; for viability, T/C: stronger effect = lower value
How it was run: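 Multi-cell-type spheroids of tumor cells with HUVEC and mesenchymal stem cells, treated with drug combinations. Concentrations descend in half-log steps from near clinical Cmax, or from 10 microM where Cmax is unknown; viability read-out.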

[1] = second compound 0.0316 µM, first compound 0.0316 µM
[2] = second compound 0.0316 µM, first compound 0.1 µM
[3] = second compound 0.0316 µM, first compound 0.316 µM
[4] = second compound 0.0316 µM, first compound 1 µM
[5] = second compound 0.0316 µM, first compound 3.16 µM
[6] = second compound 0.0316 µM, first compound 10 µM
[7] = second compound 0.1 µM, first compound 0.0316 µM
[8] = second compound 0.1 µM, first compound 0.1 µM
[9] = second compound 0.1 µM, first compound 0.316 µM
[10] = second compound 0.1 µM, first compound 1 µM
[11] = second compound 0.1 µM, first compound 3.16 µM
[12] = second compound 0.1 µM, first compound 10 µM
[13] = second compound 0.316 µM, first compound 0.0316 µM
[14] = second compound 0.316 µM, first compound 0.1 µM
[15] = second compound 0.316 µM, first compound 0.316 µM
[16] = second compound 0.316 µM, first compound 1 µM
[17] = second compound 0.316 µM, first compound 3.16 µM
[18] = second compound 0.316 µM, first compound 10 µM
[19] = second compound 1 µM, first compound 0.0316 µM
[20] = second compound 1 µM, first compound 0.1 µM
[21] = second compound 1 µM, first compound 0.316 µM
[22] = second compound 1 µM, first compound 1 µM
[23] = second compound 1 µM, first compound 3.16 µM
[24] = second compound 1 µM, first compound 10 µM
[25] = second compound 3.16 µM, first compound 0.0316 µM
[26] = second compound 3.16 µM, first compound 0.1 µM
[27] = second compound 3.16 µM, first compound 0.316 µM
[28] = second compound 3.16 µM, first compound 1 µM
[29] = second compound 3.16 µM, first compound 3.16 µM
[30] = second compound 3.16 µM, first compound 10 µM
[31] = second compound 10 µM, first compound 0.0316 µM
[32] = second compound 10 µM, first compound 0.1 µM
[33] = second compound 10 µM, first compound 0.316 µM
[34] = second compound 10 µM, first compound 1 µM
[35] = second compound 10 µM, first compound 3.16 µM
[36] = second compound 10 µM, first compound 10 µM
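Note: spheroids exposed to the agents for 7 days before readout.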
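Throughout, for viability, T/C: percent of luminescence signal in DMSO vehicle wells taken as 100% viability.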

## COc1ncnc(C2CC2)c1-c1ncc2cnn(Cc3ccc(-c4nc(C(F)(F)F)cn4C(C)C)cc3)c2n1 + Cc1[nH]c2ccc(F)cc2c1-c1nc2c3cccnc3c3ncccc3c2[nH]1
Second compound 0.0316 µM
  IC50: > 10 µM
Second compound 0.1 µM
  IC50: > 10 µM
Second compound 0.316 µM
  IC50: > 10 µM
Second compound 1 µM
  IC50: > 10 µM
Second compound 3.16 µM
  IC50: > 10 µM
Second compound 10 µM
  IC50: > 10 µM
[1]
  viability, T/C: 102%
[2]
  viability, T/C: 86.8%
[3]
  viability, T/C: 97.2%
[4]
  viability, T/C: 90.3%
[5]
  viability, T/C: 81.5%
[6]
  viability, T/C: 58%
[7]
  viability, T/C: 112%
[8]
  viability, T/C: 94.8%
[9]
  viability, T/C: 97.6%
[10]
  viability, T/C: 93.8%
[11]
  viability, T/C: 84.6%
[12]
  viability, T/C: 63.6%
[13]
  viability, T/C: 103%
[14]
  viability, T/C: 104%
[15]
  viability, T/C: 103%
[16]
  viability, T/C: 90.6%
[17]
  viability, T/C: 83.7%
[18]
  viability, T/C: 72.5%
[19]
  viability, T/C: 99.8%
[20]
  viability, T/C: 92%
[21]
  viability, T/C: 91.9%
[22]
  viability, T/C: 92.5%
[23]
  viability, T/C: 77.8%
[24]
  viability, T/C: 60.4%
[25]
  viability, T/C: 97.3%
[26]
  viability, T/C: 95.3%
[27]
  viability, T/C: 93.2%
[28]
  viability, T/C: 78.2%
[29]
  viability, T/C: 82.5%
[30]
  viability, T/C: 50.6%
[31]
  viability, T/C: 80.8%
[32]
  viability, T/C: 62.9%
[33]
  viability, T/C: 92.6%
[34]
  viability, T/C: 81.7%
[35]
  viability, T/C: 84.8%
[36]
  viability, T/C: 60.7%

## CC1COCCN1c1cc(-c2ccnn2C)c2ccnc(-c3ccn[nH]3)c2n1 (stereo unspecified) + Cc1cnc(CNC(=O)c2c(=O)c3ccc(N4CCCN(C)CC4)nc3n3c2sc2ccccc23)cn1
Second compound 0.0316 µM
  IC50: 0.176 µM
Second compound 0.1 µM
  IC50: 0.123 µM
Second compound 0.316 µM
  IC50: 0.0809 µM
Second compound 1 µM
  IC50: 0.0715 µM
Second compound 3.16 µM
  IC50: 0.0468 µM
Second compound 10 µM
  IC50: 0.0373 µM
[1]
  viability, T/C: 85.7%
[2]
  viability, T/C: 62.4%
[3]
  viability, T/C: 37.3%
[4]
  viability, T/C: 31.8%
[5]
  viability, T/C: 33.6%
[6]
  viability, T/C: 30%
[7]
  viability, T/C: 91.6%
[8]
  viability, T/C: 53%
[9]
  viability, T/C: 36.4%
[10]
  viability, T/C: 27.6%
[11]
  viability, T/C: 40%
[12]
  viability, T/C: 28.1%
[13]
  viability, T/C: 74.4%
[14]
  viability, T/C: 43.8%
[15]
  viability, T/C: 33.9%
[16]
  viability, T/C: 34.1%
[17]
  viability, T/C: 32.9%
[18]
  viability, T/C: 24.4%
[19]
  viability, T/C: 66.3%
[20]
  viability, T/C: 43.4%
[21]
  viability, T/C: 33.2%
[22]
  viability, T/C: 30%
[23]
  viability, T/C: 32%
[24]
  viability, T/C: 26.1%
[25]
  viability, T/C: 57.6%
[26]
  viability, T/C: 33.4%
[27]
  viability, T/C: 31.4%
[28]
  viability, T/C: 31.6%
[29]
  viability, T/C: 27.4%
[30]
  viability, T/C: 19.9%
[31]
  viability, T/C: 52.9%
[32]
  viability, T/C: 35%
[33]
  viability, T/C: 32.5%
[34]
  viability, T/C: 25.9%
[35]
  viability, T/C: 27.3%
[36]
  viability, T/C: 20.3%

## COc1ccc([C@@H](O)c2cc(-c3ncnc4cc(N5CCOCC5)ccc34)c(F)cc2Cl)nn1 + Cc1cnc(CNC(=O)c2c(=O)c3ccc(N4CCCN(C)CC4)nc3n3c2sc2ccccc23)cn1
Second compound 0.0316 µM
  IC50: > 10 µM
Second compound 0.1 µM
  IC50: > 10 µM
Second compound 0.316 µM
  IC50: > 10 µM
Second compound 1 µM
  IC50: 6.35 µM
Second compound 3.16 µM
  IC50: 4.19 µM
Second compound 10 µM
  IC50: 9.8 µM
[1]
  viability, T/C: 99.2%
[2]
  viability, T/C: 95.8%
[3]
  viability, T/C: 93.6%
[4]
  viability, T/C: 89.9%
[5]
  viability, T/C: 75.8%
[6]
  viability, T/C: 59.8%
[7]
  viability, T/C: 91.4%
[8]
  viability, T/C: 84%
[9]
  viability, T/C: 87.3%
[10]
  viability, T/C: 71.2%
[11]
  viability, T/C: 70.4%
[12]
  viability, T/C: 59%
[13]
  viability, T/C: 89.4%
[14]
  viability, T/C: 79.1%
[15]
  viability, T/C: 75.4%
[16]
  viability, T/C: 68.9%
[17]
  viability, T/C: 66.6%
[18]
  viability, T/C: 50.3%
[19]
  viability, T/C: 80.1%
[20]
  viability, T/C: 66.6%
[21]
  viability, T/C: 74.4%
[22]
  viability, T/C: 64.8%
[23]
  viability, T/C: 63.1%
[24]
  viability, T/C: 42.7%
[25]
  viability, T/C: 72%
[26]
  viability, T/C: 62.7%
[27]
  viability, T/C: 61.8%
[28]
  viability, T/C: 59.3%
[29]
  viability, T/C: 53.5%
[30]
  viability, T/C: 43.2%
[31]
  viability, T/C: 56.9%
[32]
  viability, T/C: 65.4%
[33]
  viability, T/C: 66.3%
[34]
  viability, T/C: 52.3%
[35]
  viability, T/C: 62.1%
[36]
  viability, T/C: 41%
